According to BindingDB's records for doi:10.1128/aac.40.5.1304 (Merck Research Laboratories, 1996):

Molecular target: Polymerase acidic protein (Influenza A virus (strain A/Puerto Rico/8/1934 H1N1), UniProt P03433)
Experiment: Inhibition of Influenza replication

SMILES | IC50 [nM]
O=C(O)C(=O)CC(=O)C1(Cc2ccc(Cl)cc2)CCN(Cc2ccc(Cl)cc2)CC1 | 180
O=C(O)C(=O)CC(=O)C1(Cc2ccc(Cl)cc2)CCCN(Cc2ccccc2)C1 (configuration not stated) | 1600
